# In US7666660B2, “Method for mixing inside a capillary and devices for achieving same” (priority 2005, dated 2010):
# Biological target: β-galactosidase (β-Gal) (Escherichia coli, UniProt P00722)
# Conditions: substrate of β-galactosidase, components mixed in a vial, 35 min incubation, 25° C., pH 7.2 phosphate buffer with 1 mM MgCl2, Michaelis-Menten equation
# Description: β-galactosidase (β-Gal) (isolated from E. coli), fluorescein mono-β-D-galactopyranoside (FMG), and fluorescein sodium salt were purchased from Sigma-Aldrich (Oakville, ON, Canada). All other chemicals were from Sigma-Aldrich, Caledon, or BDH (Toronto, ON, Canada), and were of analytical grade. Stock solutions of 4.4 mM FMG and 5 nM β-Gal were prepared with 10 mM phosphate (pH 7.2) buffer containing 1 mM MgCl2, and stored at −80° C. The 10 nM phosphate (pH 7.2) buffer containing 1 mM MgCl2 was also used for enzyme reactions, and for capillary electrophoresis as a run buffer. […]
# All capillary electrophoresis (CE) experiments were carried out with a P/ACE MDQ instrument equipped with a laser-induced fluorescent (LIF) detector (Beckman-Coulter; Fullerton Calif.). Fluorescence was excited by a 488-nm line of an argon-ion laser (5 mW). […]
# 6 μL of 1 μM FMG, 3 μL of 1 nM β-Gal, and 9 μL of 10 mM phosphate buffer containing 1 mM MgCl2 were mixed in a 200 μL reservoir. […] The reaction mixture was directly used for quantifying the amount of the product by CE. […] The identification and quantitative assay of products were preformed by the addition of fluorescein (internal reference) to the reaction mixture.
# The Km and Kcat values were determined using an approach previously described by Berezovski et al. (Electrophoresis, 23:3398-403, 2002). […]
# Sequence of β-galactosidase (β-Gal) (P00722 2-1024): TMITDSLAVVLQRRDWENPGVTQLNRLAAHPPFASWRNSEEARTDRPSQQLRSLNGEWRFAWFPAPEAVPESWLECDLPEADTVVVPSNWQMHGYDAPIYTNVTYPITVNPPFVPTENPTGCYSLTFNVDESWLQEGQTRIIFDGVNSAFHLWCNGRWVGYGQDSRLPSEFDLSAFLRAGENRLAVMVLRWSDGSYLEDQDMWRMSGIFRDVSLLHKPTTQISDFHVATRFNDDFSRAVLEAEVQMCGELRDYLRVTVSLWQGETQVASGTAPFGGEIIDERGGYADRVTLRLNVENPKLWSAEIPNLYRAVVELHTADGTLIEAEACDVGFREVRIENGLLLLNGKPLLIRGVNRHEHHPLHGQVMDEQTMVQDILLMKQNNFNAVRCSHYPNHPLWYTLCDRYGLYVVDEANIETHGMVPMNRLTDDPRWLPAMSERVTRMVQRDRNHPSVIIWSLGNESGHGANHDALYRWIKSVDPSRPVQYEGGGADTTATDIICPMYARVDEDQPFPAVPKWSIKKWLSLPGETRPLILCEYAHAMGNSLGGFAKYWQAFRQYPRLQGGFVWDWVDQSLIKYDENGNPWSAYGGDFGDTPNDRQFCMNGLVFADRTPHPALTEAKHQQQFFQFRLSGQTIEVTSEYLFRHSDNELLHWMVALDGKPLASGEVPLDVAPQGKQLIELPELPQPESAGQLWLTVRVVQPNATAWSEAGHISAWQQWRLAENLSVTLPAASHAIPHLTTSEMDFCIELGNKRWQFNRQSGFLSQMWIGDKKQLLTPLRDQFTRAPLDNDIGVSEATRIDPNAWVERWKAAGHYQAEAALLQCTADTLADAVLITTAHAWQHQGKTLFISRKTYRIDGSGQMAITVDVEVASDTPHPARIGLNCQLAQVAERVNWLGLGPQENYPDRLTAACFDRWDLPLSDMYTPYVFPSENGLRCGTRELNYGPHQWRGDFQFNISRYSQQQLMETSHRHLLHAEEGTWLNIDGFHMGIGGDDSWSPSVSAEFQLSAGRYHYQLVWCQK
compound,measurement,setting,value
"O=C1OC2(c3ccc(O)cc3Oc3cc(O[C@@H]4O[C@H](CO)[C@H](O)[C@H](O)[C@H]4O)ccc32)c2ccccc21 (stereo partly drawn) [fluorescein-mono-β-D-galactopyranoside, fluorescein mono-β-D-galactopyranoside]",Km,"read-out: Michaelis constant, Km",0.9 µM
same,"catalytic rate constant, kcat",,0.6 s⁻¹
